Experimental data: patent US9901592B2 (priority 2008, dated 2018)
Values after ≈ are worked out from the molar mass of the structure shown. Like-named read-outs stand apart in the source and are kept apart here.

How the values were obtained:
[1] = test system: M. fermentans; assay type: cell-based; conditions: M. fermentans (15 isolates); for MIC50 / MIC90: Mycoplasmopsis fermentans
[2] = test system: S. pneumoniae; assay: microbe, parasite or virus in culture; assay type: cell-based; conditions: for strains with resistant clones / strains tested: S. pneumoniae; for MIC: Streptococcus pneumoniae
[3] = test system: S. pneumoniae; assay: microbe, parasite or virus in culture; assay type: cell-based; conditions: for MIC90: Streptococcus pneumoniae
[4] = test system: M. catarrhalis; assay: microbe, parasite or virus in culture; assay type: cell-based; conditions: Moraxella catarrhalis
[5] = test system: pneumococci; assay: microbe, parasite or virus in culture; assay type: cell-based, S. pneumoniae; conditions: Streptococcus pneumoniae; for MIC50 / MIC90: pneumococci, L4 mutations (27)
[6] = test system: streptococci; assay: organism not typed; assay type: cell-based
[7] = test system: U. urealyticum; assay: MIC testing in 10B broth (colour change); assay type: cell-based; conditions: U. urealyticum (10 isolates)
[8] = test system: intraphagocytic L. pneumophila ATCC 33153 (THP-1); assay type: cell-based
[9] = read-out: Initial MIC, strain 1077 Macrolide-S, parent
[10] = read-out: Initial MIC, strain 1635 Macrolide-R [erm(A)], parent
[11] = read-out: Initial MIC, strain 3665 Macrolide-R [mef(A)], parent
[12] = read-out: Initial MIC, strain 7127 Macrolide-S [S20N in L4, A105V in L22], parent
[13] = read-out: MIC of parents of resistant clones, S. pneumoniae (CEM-101: 7 strains)
[14] = read-out: Parental MICs, S. pneumoniae, 8 strains with varying resistotypes
[15] = read-out: Selected Resistance MIC, strain 3665 Macrolide-R [mef(A)], after serial passages in the drug
[16] = strain 24 Macrolide-R [erm(B)], clone selected with CEM-101
[17] = strain 24 Macrolide-R [erm(B)], clone selected with TEL
[18] = strain 1076 Macrolide-R [erm(B)&mef(A)], clone selected with CEM-101
[19] = strain 1076 Macrolide-R [erm(B)&mef(A)], clone selected with TEL
[20] = strain 1077 Macrolide-S, clone selected with AZI
[21] = strain 1077 Macrolide-S, clone selected with CEM-101
[22] = strain 1077 Macrolide-S, clone selected with CLN
[23] = strain 1077 Macrolide-S, clone selected with TEL
[24] = strain 1635 Macrolide-R [erm(A)], clone selected with AZI
[25] = strain 1635 Macrolide-R [erm(A)], clone selected with CEM-101
[26] = strain 1635 Macrolide-R [erm(A)], clone selected with CLN
[27] = strain 1635 Macrolide-R [erm(A)], clone selected with CLR
[28] = strain 2686 Macrolide-R [L4 mutation], clone selected with CEM-101
[29] = strain 2686 Macrolide-R [L4 mutation], clone selected with CLR
[30] = strain 2686 Macrolide-R [L4 mutation], clone selected with TEL
[31] = strain 3009 Macrolide-R [23SrRNA mutation], clone selected with CEM-101
[32] = strain 3009 Macrolide-R [23SrRNA mutation], clone selected with CLR
[33] = strain 3665 Macrolide-R [mef(A)], clone selected with CEM-101
[34] = strain 3665 Macrolide-R [mef(A)], clone selected with CLR
[35] = strain 3665 Macrolide-R [mef(A)], clone selected with TEL
[36] = strain 7127 Macrolide-S [S20N in L4, A105V in L22], clone selected with AZI
[37] = strain 7127 Macrolide-S [S20N in L4, A105V in L22], clone selected with CEM-101
[38] = strain 7127 Macrolide-S [S20N in L4, A105V in L22], clone selected with CLN
[39] = strain 7127 Macrolide-S [S20N in L4, A105V in L22], clone selected with CLR
[40] = strain 7127 Macrolide-S [S20N in L4, A105V in L22], clone selected with TEL

Structure (SMILES): CCC[C@@H]1C[C@@H](C(=O)N[C@@H]([C@H]2O[C@H](SC)[C@H](O)[C@@H](O)[C@H]2O)[C@H](C)Cl)N(C)C1 [CLN, clindamycin]
- MIC Range [1]: ≦0.008-0.063 μg/mL
- MIC50 [1]: 0.016 µg/mL (≈ 0.0376 µM)
- MIC90 [1]: 0.031 µg/mL (≈ 0.0729 µM)
- strains with resistant clones / strains tested [2]: 2/5
- MIC ([2]; read-out: Initial MIC, strain 24 Macrolide-R [erm(B)], parent): > 64 µg/mL
- MIC ([2]; read-out: Initial MIC, strain 1076 Macrolide-R [erm(B)&mef(A)], parent): 64 µg/mL (≈ 151 µM)
- MIC [2, 9]: 0.016 µg/mL (≈ 0.0376 µM)
- MIC [2, 10]: 0.06 µg/mL (≈ 0.141 µM)
- MIC ([2]; read-out: Initial MIC, strain 2686 Macrolide-R [L4 mutation], parent): 0.03 µg/mL (≈ 0.0706 µM)
- MIC ([2]; read-out: Initial MIC, strain 3009 Macrolide-R [23SrRNA mutation], parent): 1 µg/mL (≈ 2.35 µM)
- MIC [2, 11]: 0.016 µg/mL (≈ 0.0376 µM)
- MIC [2, 12]: 0.03 µg/mL (≈ 0.0706 µM)
- MIC [2, 13]: 0.03 to 0.06 µg/mL
- MIC [2, 14]: 0.016 to 1 µg/mL (≈ 0.0376 to 2.35 µM)
- MIC ([2]; read-out: Selected Resistance MIC, strain 1077 Macrolide-S, after serial passages in the drug): 4 µg/mL (≈ 9.41 µM)
- MIC ([2]; read-out: Selected Resistance MIC, strain 1635 Macrolide-R [erm(A)], after serial passages in the drug): > 64 µg/mL
- MIC ([2]; read-out: Selected Resistance MIC, strain 2686 Macrolide-R [L4 mutation], after serial passages in the drug): 0.125 µg/mL (≈ 0.294 µM)
- MIC ([2]; read-out: Selected Resistance MIC, strain 3009 Macrolide-R [23SrRNA mutation], after serial passages in the drug): 2 µg/mL (≈ 4.71 µM)
- MIC [2, 15]: 0.03 µg/mL (≈ 0.0706 µM)
- Retest MIC after 10 Antibiotic-free Subcultures [2, 16]: >64 µg/mL
- Retest MIC after 10 Antibiotic-free Subcultures [2, 17]: >64 µg/mL
- Retest MIC after 10 Antibiotic-free Subcultures [2, 18]: >64 µg/mL
- Retest MIC after 10 Antibiotic-free Subcultures [2, 19]: >64 µg/mL
- Retest MIC after 10 Antibiotic-free Subcultures [2, 20]: 4 µg/mL
- Retest MIC after 10 Antibiotic-free Subcultures [2, 21]: 0.03 µg/mL
- Retest MIC after 10 Antibiotic-free Subcultures [2, 22]: 8 µg/mL
- Retest MIC after 10 Antibiotic-free Subcultures [2, 23]: 8 µg/mL
- Retest MIC after 10 Antibiotic-free Subcultures [2, 24]: 0.03 µg/mL
- Retest MIC after 10 Antibiotic-free Subcultures [2, 25]: 0.03 µg/mL
- Retest MIC after 10 Antibiotic-free Subcultures [2, 26]: >64 µg/mL
- Retest MIC after 10 Antibiotic-free Subcultures [2, 27]: 0.25 µg/mL
- Retest MIC after 10 Antibiotic-free Subcultures [2, 28]: 0.03 µg/mL
- Retest MIC after 10 Antibiotic-free Subcultures [2, 29]: 0.03 µg/mL
- Retest MIC after 10 Antibiotic-free Subcultures [2, 30]: 0.03 µg/mL
- Retest MIC after 10 Antibiotic-free Subcultures [2, 31]: 1 µg/mL
- Retest MIC after 10 Antibiotic-free Subcultures [2, 32]: 1 µg/mL
- Retest MIC after 10 Antibiotic-free Subcultures [2, 33]: 0.03 µg/mL
- Retest MIC after 10 Antibiotic-free Subcultures [2, 34]: 0.03 µg/mL
- Retest MIC after 10 Antibiotic-free Subcultures [2, 35]: 0.03 µg/mL
- Retest MIC after 10 Antibiotic-free Subcultures [2, 36]: 0.06 µg/mL
- Retest MIC after 10 Antibiotic-free Subcultures [2, 37]: 0.03 µg/mL
- Retest MIC after 10 Antibiotic-free Subcultures [2, 38]: 0.25 µg/mL
- Retest MIC after 10 Antibiotic-free Subcultures [2, 39]: 1 µg/mL
- Retest MIC after 10 Antibiotic-free Subcultures [2, 40]: 0.03 µg/mL
- nonsusceptibility [3]: 83.3%
- MIC90 [3]: > 16 µg/mL
- MIC90 [4]: 2 µg/mL (≈ 4.71 µM)
- MIC50 [5]: 0.06 µg/mL (≈ 0.141 µM)
- MIC90 [5]: 0.125 µg/mL (≈ 0.294 µM)
- MIC ([5]; read-out: MIC range, pneumococci, L4 mutations (27)): 0.03 to 0.125 µg/mL (≈ 0.0706 to 0.294 µM)
- MIC50 [6]: ≤ 0.12 µg/mL

Structure (SMILES): CC[C@H]1OC(=O)[C@H](C)[C@@H](O[C@H]2C[C@@](C)(OC)[C@@H](O)[C@H](C)O2)[C@H](C)[C@@H](O[C@@H]2O[C@H](C)C[C@H](N(C)C)[C@H]2O)[C@](C)(O)C[C@@H](C)CN(C)[C@H](C)[C@@H](O)[C@]1(C)O [AZI, azithromycin]
- MIC50 [1]: 0.5 µg/mL (≈ 0.668 µM)
- MIC90 [1]: 0.5 µg/mL (≈ 0.668 µM)
- MIC Range [7]: 0.5 to 4 µg/mL
- MIC50 ([7]; Ureaplasma urealyticum): 2 µg/mL (≈ 2.67 µM)
- MIC90 ([7]; Ureaplasma urealyticum): 4 µg/mL (≈ 5.34 µM)
- strains with resistant clones / strains tested [2]: 3/4
- MIC [2, 9]: 0.03 µg/mL (≈ 0.0401 µM)
- MIC [2, 10]: 2 µg/mL (≈ 2.67 µM)
- MIC [2, 11]: 8 µg/mL (≈ 10.7 µM)
- MIC [2, 12]: 0.06 µg/mL (≈ 0.0801 µM)
- MIC [2, 13]: 0.03 to 2 µg/mL
- MIC [2, 14]: 0.03 to 8 µg/mL (≈ 0.0401 to 10.7 µM)
- MIC [2, 15]: 16 µg/mL (≈ 21.4 µM)
- MIC ([2]; read-out: Selected Resistance MIC, strain 7127 Macrolide-S [S20N in L4, A105V in L22], after serial passages in the drug): 0.5 µg/mL (≈ 0.668 µM)
- days until resistant clones (MIC increase) ([2]; daily passages, min. 14, max. 50): 14 to 29 days
- Retest MIC after 10 Antibiotic-free Subcultures [2, 16]: >64 µg/mL
- Retest MIC after 10 Antibiotic-free Subcultures [2, 17]: >64 µg/mL
- Retest MIC after 10 Antibiotic-free Subcultures [2, 18]: >64 µg/mL
- Retest MIC after 10 Antibiotic-free Subcultures [2, 19]: >64 µg/mL
- Retest MIC after 10 Antibiotic-free Subcultures [2, 20]: >64 µg/mL
- Retest MIC after 10 Antibiotic-free Subcultures [2, 21]: 0.03 µg/mL
- Retest MIC after 10 Antibiotic-free Subcultures [2, 22]: >64 µg/mL
- Retest MIC after 10 Antibiotic-free Subcultures [2, 23]: >64 µg/mL
- Retest MIC after 10 Antibiotic-free Subcultures [2, 24]: >64 µg/mL
- Retest MIC after 10 Antibiotic-free Subcultures [2, 25]: 4 µg/mL
- Retest MIC after 10 Antibiotic-free Subcultures [2, 26]: 4 µg/mL
- Retest MIC after 10 Antibiotic-free Subcultures [2, 27]: >64 µg/mL
- Retest MIC after 10 Antibiotic-free Subcultures [2, 28]: >64 µg/mL
- Retest MIC after 10 Antibiotic-free Subcultures [2, 29]: >64 µg/mL
- Retest MIC after 10 Antibiotic-free Subcultures [2, 30]: >64 µg/mL
- Retest MIC after 10 Antibiotic-free Subcultures [2, 31]: >64 µg/mL
- Retest MIC after 10 Antibiotic-free Subcultures [2, 32]: >64 µg/mL
- Retest MIC after 10 Antibiotic-free Subcultures [2, 33]: 16 µg/mL
- Retest MIC after 10 Antibiotic-free Subcultures [2, 34]: 8 µg/mL
- Retest MIC after 10 Antibiotic-free Subcultures [2, 35]: 4 µg/mL
- Retest MIC after 10 Antibiotic-free Subcultures [2, 36]: 1 µg/mL
- Retest MIC after 10 Antibiotic-free Subcultures [2, 37]: 0.06 µg/mL
- Retest MIC after 10 Antibiotic-free Subcultures [2, 38]: 0.03 µg/mL
- Retest MIC after 10 Antibiotic-free Subcultures [2, 39]: >64 µg/mL
- Retest MIC after 10 Antibiotic-free Subcultures [2, 40]: 0.06 µg/mL
- Cs ([8]; L. pneumophila ATCC 33153, 48 h): 181 ×MIC
- Cs, static concentration ([8]; intracellular L. pneumophila ATCC 33153): 2.90 mg/L
- MIC90 [3]: > 16 µg/mL
- MIC90 [4]: 0.06 µg/mL (≈ 0.0801 µM)
- MIC50 [5]: > 64 µg/mL
- MIC90 [5]: > 64 µg/mL
- MIC50 [6]: 0.06 µg/mL (≈ 0.0801 µM)
- MIC90 [6]: 0.12 µg/mL (≈ 0.16 µM)
- MIC Range [6]: ≦0.008-0.5 μg/ml
